ChEMBL document CHEMBL6071142, “Isoalantolactone/hydroxamic acid hybrids as potent dual STAT3/HDAC inhibitors and self-assembled nanoparticles for cancer therapy” (Eur J Med Chem, 2024)
The source made the active and inactive calls. The rule behind the calls is not given here.

Columns and labels:
Histone deacetylase 3 = Histone deacetylase 3 (Homo sapiens, UniProt O15379); assay: Inhibition of recombinant human HDAC3 using Boc-Lys (acetyl)-AMC as substrate preincubated with compound for 1 hr followed by substrate addition and measured after 30 mins by microplate reader assay
Histone deacetylase 5 = Histone deacetylase 5 (Homo sapiens, UniProt Q9UQL6); assay: Inhibition of recombinant human HDAC5 using Boc-Lys (trifluroacetyl)-AMC as substrate preincubated with compound for 1 hr followed by substrate addition and measured after 30 mins by microplate reader assay
[1] = target: Polyamine deacetylase HDAC10 (Homo sapiens, UniProt Q969S8); assay: Inhibition of recombinant human HDAC10 using Boc-Lys (trifluroacetyl)-AMC as substrate preincubated with compound for 1 hr followed by substrate addition and measured after 30 mins by microplate reader assay
[2] = target: Signal transducer and activator of transcription 1-alpha/beta (Homo sapiens, UniProt P42224); assay: Binding affinity to STAT1 (unknown origin) assessed as dissociation constant by SPR assay
A549 [3] = assay: cells; assay type: functional, cell-based; details: Homo sapiens, A549, 72 h
Description: Antiproliferative activity against human A549 cells assessed as inhibition of cell proliferation incubated for 72 hrs by CCK-8 assay

[4] = target: Signal transducer and activator of transcription 3 (Homo sapiens, UniProt P40763); assay: Inhibition of STAT3 phosphorylation in human A549 cells at 0.1 to 8 uM incubated for 12 hrs by Western blot analysis; assay type: cell-based; details: dose 0.1-8 µM
[5] = target: Protein deacetylase HDAC6 (Homo sapiens) (UniProt Q9UBN7); assay: Inhibition of HDAC6 in human A549 cells assessed as increase in Ac-tubulin at 0.5 uM incubated for 12 hrs by Western blot analysis; assay type: cell-based
[6] = target: Protein deacetylase HDAC6 (Homo sapiens) (UniProt Q9UBN7); assay: Inhibition of HDAC6 in human A549 cells assessed as increase in […] level at 0.5 uM incubated for 12 hrs by Western blot analysis; assay type: cell-based
A549 [7] = assay: Induction of autophagy in human A549 cells transfected with mRFP-GFP-LC3 assessed as increase in LC3-II protein level at 0.5 uM incubated for 12 hrs by Western blot analysis; assay type: functional, cell-based
A549 [8] = assay: Induction of autophagy in human A549 cells transfected with mRFP-GFP-LC3 assessed as increase in LC3-II:LC3-I protein level at 0.5 uM by Western blot analysis; assay type: functional, cell-based; details: time 0-72 hrs, TDE = time-dependent effect
A549 [9] = assay: Induction of autophagy in human A549 cells transfected with mRFP-GFP-LC3 assessed as increase in yellow puncta at 0.5 uM incubated for 24 hrs by confocal microscopic analysis; assay type: functional, cell-based
A549 [10] = assay: Induction of autophagy in human A549 cells transfected with mRFP-GFP-LC3 assessed as increase in red puncta at 0.5 uM incubated for 24 hrs by confocal microscopic analysis; assay type: functional, cell-based
A549 [11] = assay: Induction of apoptosis in human A549 cells assessed as early apoptotic cells at 2 uM incubated for 24 hrs by Annexin V-FITC/PI staining based flow cytometric analysis (reference value: 1.53%); assay type: functional
A549 [12] = assay: Induction of apoptosis in human A549 cells assessed as late apoptotic cells at 2 uM incubated for 24 hrs by Annexin V-FITC/PI staining based flow cytometric analysis (reference value: 2.18%); assay type: functional
A549 [13] = assay: Induction of apoptosis in human A549 cells assessed as late apoptotic cells at 4 uM incubated for 24 hrs by Annexin V-FITC/PI staining based flow cytometric analysis (reference value: 2.18%); assay type: functional
A549 [14] = assay: In vivo antitumor activity against human A549 cells xenografted in female BALB/c nu/nu mouse assessed as decrease in STAT3 phosphorylation level at 5 mg/kg, iv administered every 3 days for 9 days by Western blotting analysis; assay type: functional, organism-based; details: time 3.0 day
A549 [15] = assay: In vivo antitumor activity against human A549 cells xenografted in female BALB/c nu/nu mouse assessed as Ac-tubulin at 5 mg/kg, iv administered every 3 days for 9 days by Western blotting analysis; assay type: functional, organism-based; details: time 3.0 day
[16] = Toxicity in female BALB/c nu/nu mouse xenografted with human A549 cells assessed as effect on lung at 5 mg/kg, iv by H and E staining based analysis; assay type: organism-based; details: in vivo
[17] = Toxicity in female BALB/c nu/nu mouse xenografted with human A549 cells assessed as effect on heart at 5 mg/kg, iv by H and E staining based analysis; assay type: organism-based; details: in vivo
[18] = Toxicity in female BALB/c nu/nu mouse xenografted with human A549 cells assessed as effect on liver at 5 mg/kg, iv by H and E staining based analysis; assay type: organism-based; details: in vivo
[19] = Toxicity in female BALB/c nu/nu mouse xenografted with human A549 cells assessed as effect on spleen at 2.5 mg/kg, iv by H and E staining based analysis; assay type: organism-based; details: in vivo
[20] = Drug uptake in tumor of nude mouse xenografted with A549 cells assessed as accumulation of tumor tissues at 5 mg/kg, iv using self assembled nanoparticle as source of compound by LC-MS/MS analysis; assay type: ADME, organism-based; details: in vivo
[21] = Biodistribution in liver of nude mouse xenografted with A549 cells at 5 mg/kg, iv using chlorine e6 loaded self-assembled nanoparticle as source of compound incubated for 24 hrs by ex-vivo fluorescence based LC-MS/MS analysis; assay type: ADME, organism-based
[22] = Biodistribution in kidney of nude mouse xenografted with A549 cells at 5 mg/kg, iv using chlorine e6 loaded self-assembled nanoparticle as source of compound incubated for 24 hrs by ex-vivo fluorescence based LC-MS/MS analysis; assay type: ADME, organism-based
HCT-116 = assay: cells; details: Homo sapiens, HCT-116, 72 h
Description: Antiproliferative activity against human HCT-116 cells assessed as inhibition of cell proliferation incubated for 72 hrs by CCK-8 assay

[23] = Drug accumulation in tumor of nude mouse xenografted with A549 cells assessed as increase in fluorescence at 5 mg/kg, iv using chlorine e6 loaded self assembled nanoparticle as source of compound by in vivo fluorescence imaging
A549 [24] = assay: In vivo antitumor activity against human A549 cells xenografted in female BALB/c nu/nu mouse assessed as reduction in tumor weight at 5 mg/kg, iv administered every 3 days for 18 days using self assembled nanoparticle as source of compound and measured every 3 days; details: time 3.0 day

Protein deacetylase HDAC6 (Homo sapiens), sequence (Q9UBN7 whole entry): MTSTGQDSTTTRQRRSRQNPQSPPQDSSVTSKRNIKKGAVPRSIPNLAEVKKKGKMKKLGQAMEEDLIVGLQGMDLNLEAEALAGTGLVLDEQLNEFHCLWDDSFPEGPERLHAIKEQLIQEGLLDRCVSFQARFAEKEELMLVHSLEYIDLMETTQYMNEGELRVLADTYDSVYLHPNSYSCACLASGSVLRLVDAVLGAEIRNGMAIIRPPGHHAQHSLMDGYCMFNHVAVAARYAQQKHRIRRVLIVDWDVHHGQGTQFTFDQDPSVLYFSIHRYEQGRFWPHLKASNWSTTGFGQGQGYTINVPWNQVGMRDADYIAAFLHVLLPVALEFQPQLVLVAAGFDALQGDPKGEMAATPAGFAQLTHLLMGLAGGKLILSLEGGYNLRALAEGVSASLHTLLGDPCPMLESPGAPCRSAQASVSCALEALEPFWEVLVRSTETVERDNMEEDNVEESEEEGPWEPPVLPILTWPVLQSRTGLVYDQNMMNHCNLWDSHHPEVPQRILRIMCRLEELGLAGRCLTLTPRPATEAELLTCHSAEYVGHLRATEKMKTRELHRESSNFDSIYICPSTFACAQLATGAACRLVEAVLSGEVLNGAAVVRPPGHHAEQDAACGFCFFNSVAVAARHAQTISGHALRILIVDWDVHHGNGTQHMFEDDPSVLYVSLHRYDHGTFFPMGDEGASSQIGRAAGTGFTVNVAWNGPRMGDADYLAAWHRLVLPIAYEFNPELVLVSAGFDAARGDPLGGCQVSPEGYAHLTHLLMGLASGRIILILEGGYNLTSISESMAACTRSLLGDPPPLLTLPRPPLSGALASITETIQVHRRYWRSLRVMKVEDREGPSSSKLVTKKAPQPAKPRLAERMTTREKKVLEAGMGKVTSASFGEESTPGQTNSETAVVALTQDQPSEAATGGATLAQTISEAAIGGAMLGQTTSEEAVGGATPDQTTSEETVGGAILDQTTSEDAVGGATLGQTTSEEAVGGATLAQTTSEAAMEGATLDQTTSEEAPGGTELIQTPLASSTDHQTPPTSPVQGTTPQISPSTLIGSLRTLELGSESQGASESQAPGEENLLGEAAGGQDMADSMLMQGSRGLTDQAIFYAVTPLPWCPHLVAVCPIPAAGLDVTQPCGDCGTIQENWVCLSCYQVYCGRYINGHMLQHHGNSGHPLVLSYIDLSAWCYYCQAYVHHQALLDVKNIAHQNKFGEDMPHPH
Signal transducer and activator of transcription 3, sequence (P40763 whole entry): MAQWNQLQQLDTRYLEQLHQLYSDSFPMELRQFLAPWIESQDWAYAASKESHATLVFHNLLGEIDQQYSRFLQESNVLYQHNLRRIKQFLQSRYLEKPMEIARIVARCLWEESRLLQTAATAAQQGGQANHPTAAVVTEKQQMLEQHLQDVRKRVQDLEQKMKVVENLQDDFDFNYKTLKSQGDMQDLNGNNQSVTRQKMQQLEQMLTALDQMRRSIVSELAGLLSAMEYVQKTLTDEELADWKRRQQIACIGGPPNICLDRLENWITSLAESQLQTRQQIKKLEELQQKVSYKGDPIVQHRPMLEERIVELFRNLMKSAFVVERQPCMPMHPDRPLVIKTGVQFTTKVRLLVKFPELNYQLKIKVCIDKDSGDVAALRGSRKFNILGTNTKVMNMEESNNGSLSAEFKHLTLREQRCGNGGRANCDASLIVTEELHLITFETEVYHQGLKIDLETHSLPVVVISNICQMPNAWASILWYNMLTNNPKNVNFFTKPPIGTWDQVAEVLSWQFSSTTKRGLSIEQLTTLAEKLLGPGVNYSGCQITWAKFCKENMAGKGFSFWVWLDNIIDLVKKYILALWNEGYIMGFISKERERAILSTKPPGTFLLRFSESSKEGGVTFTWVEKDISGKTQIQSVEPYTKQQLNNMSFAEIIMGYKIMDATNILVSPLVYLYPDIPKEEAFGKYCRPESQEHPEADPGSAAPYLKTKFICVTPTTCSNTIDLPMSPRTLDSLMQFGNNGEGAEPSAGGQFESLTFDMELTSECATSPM
Signal transducer and activator of transcription 1-alpha/beta, sequence (P42224 whole entry): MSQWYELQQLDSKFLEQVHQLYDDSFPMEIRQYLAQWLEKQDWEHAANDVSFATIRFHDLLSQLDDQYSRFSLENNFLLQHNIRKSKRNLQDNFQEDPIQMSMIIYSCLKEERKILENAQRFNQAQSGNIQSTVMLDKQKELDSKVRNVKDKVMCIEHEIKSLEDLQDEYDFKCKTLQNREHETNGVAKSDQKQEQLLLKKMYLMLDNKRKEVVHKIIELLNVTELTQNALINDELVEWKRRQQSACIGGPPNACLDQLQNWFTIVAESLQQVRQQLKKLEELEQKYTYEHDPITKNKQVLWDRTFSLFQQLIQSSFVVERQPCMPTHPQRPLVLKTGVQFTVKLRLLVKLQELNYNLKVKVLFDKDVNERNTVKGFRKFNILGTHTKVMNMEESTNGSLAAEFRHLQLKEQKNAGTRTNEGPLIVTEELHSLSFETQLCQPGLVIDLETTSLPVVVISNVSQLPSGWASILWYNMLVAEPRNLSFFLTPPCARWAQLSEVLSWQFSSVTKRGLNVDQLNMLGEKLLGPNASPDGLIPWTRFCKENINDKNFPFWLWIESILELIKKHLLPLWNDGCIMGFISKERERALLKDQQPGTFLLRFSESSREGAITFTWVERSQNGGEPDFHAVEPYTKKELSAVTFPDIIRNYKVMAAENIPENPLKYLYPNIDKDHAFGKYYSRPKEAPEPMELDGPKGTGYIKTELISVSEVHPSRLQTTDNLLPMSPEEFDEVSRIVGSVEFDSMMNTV
Histone deacetylase 5, sequence (Q9UQL6 whole entry): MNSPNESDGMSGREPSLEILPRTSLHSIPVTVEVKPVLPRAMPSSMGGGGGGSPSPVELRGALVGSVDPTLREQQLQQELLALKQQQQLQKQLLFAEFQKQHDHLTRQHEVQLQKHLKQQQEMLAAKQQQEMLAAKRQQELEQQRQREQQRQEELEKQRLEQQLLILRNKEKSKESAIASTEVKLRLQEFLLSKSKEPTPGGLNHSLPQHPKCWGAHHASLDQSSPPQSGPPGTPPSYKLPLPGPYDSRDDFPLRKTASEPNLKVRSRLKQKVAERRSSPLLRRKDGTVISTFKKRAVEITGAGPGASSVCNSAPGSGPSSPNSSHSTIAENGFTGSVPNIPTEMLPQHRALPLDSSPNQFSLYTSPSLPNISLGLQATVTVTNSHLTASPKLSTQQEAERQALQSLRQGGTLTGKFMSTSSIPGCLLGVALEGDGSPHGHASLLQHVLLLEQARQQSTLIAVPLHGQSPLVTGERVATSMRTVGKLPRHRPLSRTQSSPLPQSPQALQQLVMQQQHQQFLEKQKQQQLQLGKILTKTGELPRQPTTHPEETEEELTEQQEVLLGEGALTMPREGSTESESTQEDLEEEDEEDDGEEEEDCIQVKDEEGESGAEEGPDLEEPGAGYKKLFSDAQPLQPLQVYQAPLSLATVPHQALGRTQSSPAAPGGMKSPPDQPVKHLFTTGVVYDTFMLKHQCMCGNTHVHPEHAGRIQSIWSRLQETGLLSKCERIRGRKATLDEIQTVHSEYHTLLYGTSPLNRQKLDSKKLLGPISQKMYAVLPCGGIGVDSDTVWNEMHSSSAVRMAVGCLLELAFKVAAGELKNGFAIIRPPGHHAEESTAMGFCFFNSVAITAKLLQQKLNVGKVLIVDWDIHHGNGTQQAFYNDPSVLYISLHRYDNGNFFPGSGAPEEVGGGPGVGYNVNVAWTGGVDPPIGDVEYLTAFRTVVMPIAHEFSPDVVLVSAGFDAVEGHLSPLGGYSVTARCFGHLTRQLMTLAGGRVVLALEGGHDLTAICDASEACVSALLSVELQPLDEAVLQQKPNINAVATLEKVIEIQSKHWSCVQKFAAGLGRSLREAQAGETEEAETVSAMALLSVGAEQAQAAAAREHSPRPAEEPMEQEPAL
Polyamine deacetylase HDAC10, sequence (Q969S8 whole entry): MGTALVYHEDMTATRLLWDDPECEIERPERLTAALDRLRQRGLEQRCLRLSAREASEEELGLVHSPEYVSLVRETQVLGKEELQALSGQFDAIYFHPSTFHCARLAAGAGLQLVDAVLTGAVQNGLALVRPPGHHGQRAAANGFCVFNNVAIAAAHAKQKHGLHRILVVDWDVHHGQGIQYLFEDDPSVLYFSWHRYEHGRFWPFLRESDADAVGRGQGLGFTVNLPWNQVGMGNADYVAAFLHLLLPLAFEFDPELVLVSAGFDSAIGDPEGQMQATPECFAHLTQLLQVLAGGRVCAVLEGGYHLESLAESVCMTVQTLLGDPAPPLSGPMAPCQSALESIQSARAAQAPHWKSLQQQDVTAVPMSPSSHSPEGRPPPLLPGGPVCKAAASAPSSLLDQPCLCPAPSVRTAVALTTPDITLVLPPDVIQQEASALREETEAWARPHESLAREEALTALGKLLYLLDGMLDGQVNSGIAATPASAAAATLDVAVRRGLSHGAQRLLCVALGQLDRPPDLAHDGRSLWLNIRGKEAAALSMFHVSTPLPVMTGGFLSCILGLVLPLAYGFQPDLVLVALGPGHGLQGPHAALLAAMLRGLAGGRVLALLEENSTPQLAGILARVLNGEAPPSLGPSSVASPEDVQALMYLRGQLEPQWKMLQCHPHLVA
Histone deacetylase 3, sequence (O15379 whole entry): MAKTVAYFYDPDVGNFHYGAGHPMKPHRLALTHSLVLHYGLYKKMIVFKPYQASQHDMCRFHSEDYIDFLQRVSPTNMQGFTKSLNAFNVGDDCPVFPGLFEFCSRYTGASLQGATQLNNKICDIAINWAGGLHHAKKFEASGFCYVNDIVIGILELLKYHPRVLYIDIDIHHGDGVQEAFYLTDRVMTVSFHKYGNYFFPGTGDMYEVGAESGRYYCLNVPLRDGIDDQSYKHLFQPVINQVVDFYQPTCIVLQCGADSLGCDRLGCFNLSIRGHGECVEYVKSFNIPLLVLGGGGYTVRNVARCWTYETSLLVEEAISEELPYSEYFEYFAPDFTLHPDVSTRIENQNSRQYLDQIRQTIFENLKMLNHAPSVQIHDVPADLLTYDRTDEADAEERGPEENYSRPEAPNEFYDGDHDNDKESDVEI

C=C1C(=O)O[C@@H]2C[C@@]3(C)CC[C@@H](OC(=O)[C@H](C)NC(=O)c4ccc(/C=C/C(=O)NO)cc4)C(=C)[C@@H]3C[C@H]12 showed an IC50 (Histone deacetylase 3) of 0.0519 µM, an IC50 (Histone deacetylase 5) of over 10 µM and an IC50 [1] of 0.0574 µM. For the same compound, the Kd [2] was “Not Active”, the IC50 (A549 [3]) was 0.12 µM and the inhibition [4] was “Active”. The inhibition [5] was “Active”, the inhibition [6] was “Active” and the Activity (A549 [7]) was “Active”. The Activity (A549 [8]) was “Tde”, the Activity (A549 [9]) was “Active” and the Activity (A549 [10]) was “Active”. It also gave an Activity (A549 [11]) of 4.07%, an Activity (A549 [12]) of 11.86% and an Activity (A549 [13]) of 35.53%. For the same compound, the Activity (A549 [14]) was “Active”, the Activity (A549 [15]) was “Active” and the Activity [16] was “Non-Toxic”. For the same compound, the Activity [17] was “Non-Toxic”, the Activity [18] was “Non-Toxic” and the Activity [19] was “Non-Toxic”. For the same compound, the Drug uptake [20] was “Active”, the Drug uptake [21] was “Active” and the Drug uptake [22] was “Active”. The IC50 (HCT-116) was 0.04 µM, the Drug uptake [23] was “Active” and the Activity (A549 [24]) was “Active”.
